# Measurements as given in PubChem BioAssay AID1963983 (Molecular Pharmacology Branch, DTP, NCI, 2024).
# System: 186277-243-T-J2-PDC multi-cell spheroid viability
# Assay: Anticancer human tumor 186277-243-T-J2-PDC patient-derived colon adenocarcinoma cell line growth inhibition [PI3K]
# Conditions: for IC50: curve of first compound; for viability, T/C: stronger effect = lower value
# Method in brief: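 High-throughput combination screen: PI3K inhibitors crossed with targeted small molecules on complex spheroids of tumor cells, HUVEC and MSCs at 37 degrees C, 5% CO2. Top concentration was at or near clinical Cmax (otherwise 10 microM), with half-log decrements.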
# [1] = second compound 0.0316 µM, first compound 0.000316 µM
# [2] = second compound 0.0316 µM, first compound 0.001 µM
# [3] = second compound 0.0316 µM, first compound 0.00316 µM
# [4] = second compound 0.0316 µM, first compound 0.01 µM
# [5] = second compound 0.0316 µM, first compound 0.0316 µM
# [6] = second compound 0.0316 µM, first compound 0.1 µM
# [7] = second compound 0.1 µM, first compound 0.000316 µM
# [8] = second compound 0.1 µM, first compound 0.001 µM
# [9] = second compound 0.1 µM, first compound 0.00316 µM
# [10] = second compound 0.1 µM, first compound 0.01 µM
# [11] = second compound 0.1 µM, first compound 0.0316 µM
# [12] = second compound 0.1 µM, first compound 0.1 µM
# [13] = second compound 0.316 µM, first compound 0.000316 µM
# [14] = second compound 0.316 µM, first compound 0.001 µM
# [15] = second compound 0.316 µM, first compound 0.00316 µM
# [16] = second compound 0.316 µM, first compound 0.01 µM
# [17] = second compound 0.316 µM, first compound 0.0316 µM
# [18] = second compound 0.316 µM, first compound 0.1 µM
# [19] = second compound 1 µM, first compound 0.000316 µM
# [20] = second compound 1 µM, first compound 0.001 µM
# [21] = second compound 1 µM, first compound 0.00316 µM
# [22] = second compound 1 µM, first compound 0.01 µM
# [23] = second compound 1 µM, first compound 0.0316 µM
# [24] = second compound 1 µM, first compound 0.1 µM
# [25] = second compound 3.16 µM, first compound 0.000316 µM
# [26] = second compound 3.16 µM, first compound 0.001 µM
# [27] = second compound 3.16 µM, first compound 0.00316 µM
# [28] = second compound 3.16 µM, first compound 0.01 µM
# [29] = second compound 3.16 µM, first compound 0.0316 µM
# [30] = second compound 3.16 µM, first compound 0.1 µM
# [31] = second compound 10 µM, first compound 0.000316 µM
# [32] = second compound 10 µM, first compound 0.001 µM
# [33] = second compound 10 µM, first compound 0.00316 µM
# [34] = second compound 10 µM, first compound 0.01 µM
# [35] = second compound 10 µM, first compound 0.0316 µM
# [36] = second compound 10 µM, first compound 0.1 µM
# 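Also: spheroids exposed to compounds for seven days before viability reading.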
# 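For viability, T/C in this document: 100% = DMSO vehicle control viability.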
structure (smiles),measurement,setting,value
Cn1ncnc1[C@H]1c2n[nH]c(=O)c3cc(F)cc(c23)N[C@@H]1c1ccc(F)cc1 + Cc1nc(NC(=O)N2CCCC2C(N)=O)sc1-c1ccnc(C(C)(C)C(F)(F)F)c1,IC50,second compound 0.0316 µM,> 100 nM
same,IC50,second compound 0.1 µM,> 100 nM
same,IC50,second compound 0.316 µM,> 100 nM
same,IC50,second compound 1 µM,> 100 nM
same,IC50,second compound 3.16 µM,2.54 nM
same,IC50,second compound 10 µM,< 0.316 nM
same,"viability, T/C",[1],86.8%
same,"viability, T/C",[2],82.2%
same,"viability, T/C",[3],94.5%
same,"viability, T/C",[4],96.9%
same,"viability, T/C",[5],112%
same,"viability, T/C",[6],92.7%
same,"viability, T/C",[7],114%
same,"viability, T/C",[8],99.6%
same,"viability, T/C",[9],97.1%
same,"viability, T/C",[10],117%
same,"viability, T/C",[11],116%
same,"viability, T/C",[12],108%
same,"viability, T/C",[13],114%
same,"viability, T/C",[14],113%
same,"viability, T/C",[15],112%
same,"viability, T/C",[16],107%
same,"viability, T/C",[17],104%
same,"viability, T/C",[18],90.4%
same,"viability, T/C",[19],101%
same,"viability, T/C",[20],94.9%
same,"viability, T/C",[21],99.9%
same,"viability, T/C",[22],91.6%
same,"viability, T/C",[23],85.5%
same,"viability, T/C",[24],65.9%
same,"viability, T/C",[25],64.3%
same,"viability, T/C",[26],52.7%
same,"viability, T/C",[27],45.9%
same,"viability, T/C",[28],46.9%
same,"viability, T/C",[29],43.9%
same,"viability, T/C",[30],33.6%
same,"viability, T/C",[31],13.6%
same,"viability, T/C",[32],12%
same,"viability, T/C",[33],14.8%
same,"viability, T/C",[34],17.4%
same,"viability, T/C",[35],11.3%
same,"viability, T/C",[36],8.17%
CC(C)n1nc(-c2ccc3oc(N)nc3c2)c2c(N)ncnc21 + Cc1nc(NC(=O)N2CCCC2C(N)=O)sc1-c1ccnc(C(C)(C)C(F)(F)F)c1,IC50,second compound 0.0316 µM,53.1 nM
same,IC50,second compound 0.1 µM,52.6 nM
same,IC50,second compound 0.316 µM,38 nM
same,IC50,second compound 1 µM,24.5 nM
same,IC50,second compound 3.16 µM,2.04 nM
same,IC50,second compound 10 µM,< 0.316 nM
same,"viability, T/C",[1],106%
same,"viability, T/C",[2],90.3%
same,"viability, T/C",[3],101%
same,"viability, T/C",[4],101%
same,"viability, T/C",[5],73.5%
same,"viability, T/C",[6],21.5%
same,"viability, T/C",[7],101%
same,"viability, T/C",[8],107%
same,"viability, T/C",[9],99.1%
same,"viability, T/C",[10],87.1%
same,"viability, T/C",[11],72.1%
same,"viability, T/C",[12],24.1%
same,"viability, T/C",[13],114%
same,"viability, T/C",[14],107%
same,"viability, T/C",[15],79.9%
same,"viability, T/C",[16],82.4%
same,"viability, T/C",[17],63.7%
same,"viability, T/C",[18],14.7%
same,"viability, T/C",[19],113%
same,"viability, T/C",[20],97.5%
same,"viability, T/C",[21],87.7%
same,"viability, T/C",[22],76.8%
same,"viability, T/C",[23],41%
same,"viability, T/C",[24],6.83%
same,"viability, T/C",[25],62.1%
same,"viability, T/C",[26],56.8%
same,"viability, T/C",[27],46.2%
same,"viability, T/C",[28],29%
same,"viability, T/C",[29],14.5%
same,"viability, T/C",[30],3.88%
same,"viability, T/C",[31],17.3%
same,"viability, T/C",[32],16.8%
same,"viability, T/C",[33],10.8%
same,"viability, T/C",[34],13.1%
same,"viability, T/C",[35],6.47%
same,"viability, T/C",[36],2.92%
C=CC(=O)N1CCN(c2nc(=O)n(-c3c(C)ccnc3C(C)C)c3nc(-c4c(O)cccc4F)c(F)cc23)C(C)C1 (stereo unspecified) + COc1c(OCCCN2CCOCC2)ccc2c3n(c(=NC(=O)c4cnc(N)nc4)nc12)CCN3,IC50,second compound 0.00316 µM,> 10000 nM
same,IC50,second compound 0.01 µM,> 10000 nM
same,IC50,second compound 0.0316 µM,1870 nM
same,IC50,second compound 0.1 µM,< 31.6 nM
same,IC50,second compound 0.316 µM,< 31.6 nM
same,IC50,second compound 1 µM,< 31.6 nM
same,"viability, T/C","second compound 0.00316 µM, first compound 0.0316 µM",102%
same,"viability, T/C","second compound 0.00316 µM, first compound 0.1 µM",88.7%
same,"viability, T/C","second compound 0.00316 µM, first compound 0.316 µM",88.1%
same,"viability, T/C","second compound 0.00316 µM, first compound 1 µM",88.1%
same,"viability, T/C","second compound 0.00316 µM, first compound 3.16 µM",93.2%
same,"viability, T/C","second compound 0.00316 µM, first compound 10 µM",73%
same,"viability, T/C","second compound 0.01 µM, first compound 0.0316 µM",93.1%
same,"viability, T/C","second compound 0.01 µM, first compound 0.1 µM",88.2%
same,"viability, T/C","second compound 0.01 µM, first compound 0.316 µM",94.4%
same,"viability, T/C","second compound 0.01 µM, first compound 1 µM",93.6%
same,"viability, T/C","second compound 0.01 µM, first compound 3.16 µM",87.8%
same,"viability, T/C","second compound 0.01 µM, first compound 10 µM",62.3%
same,"viability, T/C",[5],59.7%
same,"viability, T/C",[6],67.1%
same,"viability, T/C","second compound 0.0316 µM, first compound 0.316 µM",57.5%
same,"viability, T/C","second compound 0.0316 µM, first compound 1 µM",52.6%
same,"viability, T/C","second compound 0.0316 µM, first compound 3.16 µM",47.8%
same,"viability, T/C","second compound 0.0316 µM, first compound 10 µM",31.2%
same,"viability, T/C",[11],18.3%
same,"viability, T/C",[12],18.1%
same,"viability, T/C","second compound 0.1 µM, first compound 0.316 µM",14.9%
same,"viability, T/C","second compound 0.1 µM, first compound 1 µM",12.3%
same,"viability, T/C","second compound 0.1 µM, first compound 3.16 µM",11.1%
same,"viability, T/C","second compound 0.1 µM, first compound 10 µM",10.9%
same,"viability, T/C",[17],6.24%
same,"viability, T/C",[18],4.28%
same,"viability, T/C","second compound 0.316 µM, first compound 0.316 µM",3.7%
same,"viability, T/C","second compound 0.316 µM, first compound 1 µM",4.23%
same,"viability, T/C","second compound 0.316 µM, first compound 3.16 µM",7.04%
same,"viability, T/C","second compound 0.316 µM, first compound 10 µM",4.1%
same,"viability, T/C",[23],1.93%
same,"viability, T/C",[24],4.05%
same,"viability, T/C","second compound 1 µM, first compound 0.316 µM",1.66%
same,"viability, T/C","second compound 1 µM, first compound 1 µM",2.03%
same,"viability, T/C","second compound 1 µM, first compound 3.16 µM",2.92%
same,"viability, T/C","second compound 1 µM, first compound 10 µM",2.49%
